Tested on: 772245-204-R-J1-PDC complex spheroid growth
Test: Anticancer human tumor 772245-204-R-J1-PDC patient-derived rhabdomyosarcoma cell line growth inhibition [Asc]
Conditions: for IC50: curve of first compound; for viability, T/C: stronger effect = lower value
Procedure, shortened: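 Stromal components (HUVEC and hMSC) are co-assembled with the cancer cells into multicellular spheroids. Drugs are then added singly or paired, at concentrations falling by half-log increments from a clinically achievable maximum, capped at 10 microM without known Cmax.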

[1] = second compound 0.1 µM, first compound 0.0316 µM
[2] = second compound 0.1 µM, first compound 0.1 µM
[3] = second compound 0.1 µM, first compound 0.316 µM
[4] = second compound 0.1 µM, first compound 1 µM
[5] = second compound 0.1 µM, first compound 3.16 µM
[6] = second compound 0.1 µM, first compound 10 µM
[7] = second compound 0.316 µM, first compound 0.0316 µM
[8] = second compound 0.316 µM, first compound 0.1 µM
[9] = second compound 0.316 µM, first compound 0.316 µM
[10] = second compound 0.316 µM, first compound 1 µM
[11] = second compound 0.316 µM, first compound 3.16 µM
[12] = second compound 0.316 µM, first compound 10 µM
[13] = second compound 1 µM, first compound 0.0316 µM
[14] = second compound 1 µM, first compound 0.1 µM
[15] = second compound 1 µM, first compound 0.316 µM
[16] = second compound 1 µM, first compound 1 µM
[17] = second compound 1 µM, first compound 3.16 µM
[18] = second compound 1 µM, first compound 10 µM
[19] = second compound 3.16 µM, first compound 0.0316 µM
[20] = second compound 3.16 µM, first compound 0.1 µM
[21] = second compound 3.16 µM, first compound 0.316 µM
[22] = second compound 3.16 µM, first compound 1 µM
[23] = second compound 3.16 µM, first compound 3.16 µM
[24] = second compound 3.16 µM, first compound 10 µM
[25] = second compound 10 µM, first compound 0.0316 µM
[26] = second compound 10 µM, first compound 0.1 µM
[27] = second compound 10 µM, first compound 0.316 µM
[28] = second compound 10 µM, first compound 1 µM
[29] = second compound 10 µM, first compound 3.16 µM
[30] = second compound 10 µM, first compound 10 µM
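Note: compound exposure lasted seven days.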
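Throughout, for viability, T/C: 100% = DMSO vehicle control viability.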

`C=CC(=O)N1CCN(c2nc(=O)n(-c3c(C)ccnc3C(C)C)c3nc(-c4c(O)cccc4F)c(F)cc23)C(C)C1` (stereo not given) + Cc1c(S(C)(=O)=O)c(-c2cc(F)cc(N3CCN(c4ccc(NS(=O)(=O)c5ccc(NC(CCN6CCC(C(=O)OCCCP(=O)(O)O)CC6)CSc6ccccc6)c(S(=O)(=O)C(F)(F)F)c5)cc4)CC3)c2)c(-c2ccc(Cl)cc2)n1C(C)C showed an IC50 (second compound 0.1 µM) of 6320 nM, an IC50 (second compound 0.316 µM) of 2430 nM and an IC50 (second compound 1 µM) of less than 31.6 nM. For the same compound, the IC50 (second compound 3.16 µM) was 57.9 nM, the IC50 (second compound 10 µM) was less than 31.6 nM and the viability, T/C [1] was 85%. For the same compound, the viability, T/C [2] was 79.7%, the viability, T/C [3] was 89.5% and the viability, T/C [4] was 67.7%. The viability, T/C [5] was 69.5%, the viability, T/C [6] was 38.9% and the viability, T/C [7] was 66.9%. The viability, T/C [8] was 69.2%, the viability, T/C [9] was 68.2% and the viability, T/C [10] was 59.9%. The viability, T/C [11] was 47.1%, the viability, T/C [12] was 11.8% and the viability, T/C [13] was 49.9%. It also gave a viability, T/C [14] of 43%, a viability, T/C [15] of 44.9% and a viability, T/C [16] of 29.3%. For the same compound, the viability, T/C [17] was 15.1%, the viability, T/C [18] was 15.1% and the viability, T/C [19] was 41.8%. For the same compound, the viability, T/C [20] was 62.3%, the viability, T/C [21] was 37.9% and the viability, T/C [22] was 26.5%. The viability, T/C [23] was 15.8%, the viability, T/C [24] was 5.71% and the viability, T/C [25] was 48.5%. For the same compound, the viability, T/C [26] was 41.3%, the viability, T/C [27] was 41.3% and the viability, T/C [28] was 30.6%. The viability, T/C [29] was 13.5% and the viability, T/C [30] was 6.87%.
Compound `C=C(F)C(=O)N1CCN(c2nc(OCC3CCCN3C)nc3c2CCN(c2cccc4cccc(Cl)c24)C3)CC1CC#N` (stereo not given) + Cc1c(S(C)(=O)=O)c(-c2cc(F)cc(N3CCN(c4ccc(NS(=O)(=O)c5ccc(NC(CCN6CCC(C(=O)OCCCP(=O)(O)O)CC6)CSc6ccccc6)c(S(=O)(=O)C(F)(F)F)c5)cc4)CC3)c2)c(-c2ccc(Cl)cc2)n1C(C)C has an IC50 (second compound 0.1 µM) of 1570 nM, an IC50 (second compound 0.316 µM) of 772 nM and an IC50 (second compound 1 µM) of less than 31.6 nM. It also gave an IC50 (second compound 3.16 µM) of less than 31.6 nM, an IC50 (second compound 10 µM) of less than 31.6 nM and a viability, T/C [1] of 79%. It also gave a viability, T/C [2] of 77.7%, a viability, T/C [3] of 72.6% and a viability, T/C [4] of 70.7%. It also gave a viability, T/C [5] of 18.1%, a viability, T/C [6] of 0.14% and a viability, T/C [7] of 60.4%. The viability, T/C [8] was 65.2%, the viability, T/C [9] was 52.3% and the viability, T/C [10] was 47.8%. For the same compound, the viability, T/C [11] was 3.54%, the viability, T/C [12] was 0.12% and the viability, T/C [13] was 40%. The viability, T/C [14] was 45.9%, the viability, T/C [15] was 35.4% and the viability, T/C [16] was 30.9%. The viability, T/C [17] was 2.95%, the viability, T/C [18] was 0.1% and the viability, T/C [19] was 35.7%. It also gave a viability, T/C [20] of 39.7%, a viability, T/C [21] of 45.7% and a viability, T/C [22] of 20.1%. The viability, T/C [23] was 1.47%, the viability, T/C [24] was 0.11% and the viability, T/C [25] was 43.3%. It also gave a viability, T/C [26] of 39.4%, a viability, T/C [27] of 37.3% and a viability, T/C [28] of 17.6%. The viability, T/C [29] was 1.02% and the viability, T/C [30] was 0.18%.
Work on `O=C(c1ccc(F)c(F)c1Nc1ccc(I)cc1F)N1CC(O)([C@@H]2CCCCN2)C1` + CNC(C)C(=O)NC1CN(S(=O)(=O)c2cccc(S(=O)(=O)N3CCC4CCC(C(=O)NC(c5ccccc5)c5ccccc5)N4C(=O)C(NC(=O)C(C)NC)C3)c2)CCC2CCC(C(=O)NC(c3ccccc3)c3ccccc3)N2C1=O yielded an IC50 (second compound 0.01 µM) greater than 1000 nM, an IC50 (second compound 0.0316 µM) greater than 1000 nM and an IC50 (second compound 0.1 µM) greater than 1000 nM. The IC50 (second compound 0.316 µM) was greater than 1000 nM, the IC50 (second compound 1 µM) was greater than 1000 nM and the viability, T/C (second compound 0.01 µM, first compound 0.00316 µM) was 93.1%. The viability, T/C (second compound 0.01 µM, first compound 0.01 µM) was 85.4%, the viability, T/C (second compound 0.01 µM, first compound 0.0316 µM) was 93.3% and the viability, T/C (second compound 0.01 µM, first compound 0.1 µM) was 84.8%. The viability, T/C (second compound 0.01 µM, first compound 0.316 µM) was 97.9%, the viability, T/C (second compound 0.01 µM, first compound 1 µM) was 105% and the viability, T/C (second compound 0.0316 µM, first compound 0.00316 µM) was 98.3%. The viability, T/C (second compound 0.0316 µM, first compound 0.01 µM) was 90.7%, the viability, T/C (second compound 0.0316 µM, first compound 0.0316 µM) was 95.2% and the viability, T/C (second compound 0.0316 µM, first compound 0.1 µM) was 93.2%. For the same compound, the viability, T/C (second compound 0.0316 µM, first compound 0.316 µM) was 101%, the viability, T/C (second compound 0.0316 µM, first compound 1 µM) was 95.4% and the viability, T/C (second compound 0.1 µM, first compound 0.00316 µM) was 93.3%. For the same compound, the viability, T/C (second compound 0.1 µM, first compound 0.01 µM) was 84.8%, the viability, T/C [1] was 90.1% and the viability, T/C [2] was 87.6%. The viability, T/C [3] was 103%, the viability, T/C [4] was 77.9% and the viability, T/C (second compound 0.316 µM, first compound 0.00316 µM) was 91.7%. The viability, T/C (second compound 0.316 µM, first compound 0.01 µM) was 88.1%, the viability, T/C [7] was 96.8% and the viability, T/C [8] was 99.8%. It also gave a viability, T/C [9] of 103%, a viability, T/C [10] of 112% and a viability, T/C (second compound 1 µM, first compound 0.00316 µM) of 100%. For the same compound, the viability, T/C (second compound 1 µM, first compound 0.01 µM) was 89.7%, the viability, T/C [13] was 88.8% and the viability, T/C [14] was 92%. For the same compound, the viability, T/C [15] was 94.5% and the viability, T/C [16] was 97.6%.
Work on `COc1c(OCCCN2CCOCC2)ccc2c3n(c(=NC(=O)c4cnc(N)nc4)nc12)CCN3` + CCN1C(C(=O)NC23CCC(C(=O)O)(CC2)CC3)C(c2cccc(Cl)c2F)C2(C(=O)Nc3cc(Cl)ccc32)C12CCCCC2 yielded an IC50 (second compound 0.03 µM) of 188 nM, an IC50 (second compound 0.0949 µM) of 146 nM and an IC50 (second compound 0.3 µM) of 90.5 nM. It also gave an IC50 (second compound 0.949 µM) of 139 nM, an IC50 (second compound 3 µM) of 51.4 nM and a viability, T/C (second compound 0.03 µM, first compound 0.00316 µM) of 99.5%. It also gave a viability, T/C (second compound 0.03 µM, first compound 0.01 µM) of 105%, a viability, T/C (second compound 0.03 µM, first compound 0.0316 µM) of 83.7% and a viability, T/C (second compound 0.03 µM, first compound 0.1 µM) of 61.6%. The viability, T/C (second compound 0.03 µM, first compound 0.316 µM) was 41.8%, the viability, T/C (second compound 0.03 µM, first compound 1 µM) was 32.3% and the viability, T/C (second compound 0.0949 µM, first compound 0.00316 µM) was 105%. The viability, T/C (second compound 0.0949 µM, first compound 0.01 µM) was 97.6%, the viability, T/C (second compound 0.0949 µM, first compound 0.0316 µM) was 80% and the viability, T/C (second compound 0.0949 µM, first compound 0.1 µM) was 57.5%. For the same compound, the viability, T/C (second compound 0.0949 µM, first compound 0.316 µM) was 35.6%, the viability, T/C (second compound 0.0949 µM, first compound 1 µM) was 24.8% and the viability, T/C (second compound 0.3 µM, first compound 0.00316 µM) was 103%. For the same compound, the viability, T/C (second compound 0.3 µM, first compound 0.01 µM) was 109%, the viability, T/C (second compound 0.3 µM, first compound 0.0316 µM) was 84.7% and the viability, T/C (second compound 0.3 µM, first compound 0.1 µM) was 46.6%. The viability, T/C (second compound 0.3 µM, first compound 0.316 µM) was 39.1%, the viability, T/C (second compound 0.3 µM, first compound 1 µM) was 30% and the viability, T/C (second compound 0.949 µM, first compound 0.00316 µM) was 105%. The viability, T/C (second compound 0.949 µM, first compound 0.01 µM) was 99%, the viability, T/C (second compound 0.949 µM, first compound 0.0316 µM) was 77.2% and the viability, T/C (second compound 0.949 µM, first compound 0.1 µM) was 55.2%. The viability, T/C (second compound 0.949 µM, first compound 0.316 µM) was 37.3%, the viability, T/C (second compound 0.949 µM, first compound 1 µM) was 23% and the viability, T/C (second compound 3 µM, first compound 0.00316 µM) was 69.3%. It also gave a viability, T/C (second compound 3 µM, first compound 0.01 µM) of 78.5%, a viability, T/C (second compound 3 µM, first compound 0.0316 µM) of 57.4% and a viability, T/C (second compound 3 µM, first compound 0.1 µM) of 38.1%. For the same compound, the viability, T/C (second compound 3 µM, first compound 0.316 µM) was 29.5% and the viability, T/C (second compound 3 µM, first compound 1 µM) was 26.6%.

Reference: PubChem BioAssay AID1963433 (Molecular Pharmacology Branch, DTP, NCI, 2024)
